Results as given in patent publication US11420947B2, “(S)-n-hydroxy-2-(2-(4-methoxyphenyl)butanamido)thiazole-5-carboxamide and pharmaceutically acceptable salts thereof” (TRANSLATIONAL DRUG DEVELOPMENT, LLC, priority 2018, dated 2022).
pIC50: −log10 of the molar value.

What was measured:
Experiment in all cases: CellTiter-Glo cell viability assay
Format in all cases: cell-based
[1] = system: A375; conditions: for pIC50: Homo sapiens, A-375, A375, MELANOMA, Malignant Melanoma, 72 hours
Description: (§1) Cell viability in the presence of varying concentrations of the above listed compounds at different time points was used to assess cytotoxicity and the effect of the compounds on cell proliferation.
(§2) Cell viability was measured by the CellTiter-Glo® cell viability assay from Promega (Madison, Wis.). The CellTiter-Glo® Luminescent Cell Viability Assay is a homogeneous method to determine the number of viable cells in culture based on quantitation of the ATP present, which signals the presence of metabolically active cells. Following treatment, CellTiter-Glo® is added to treatment wells and incubated at 37° C. luminescence values were measured at using a Molecular Devices Spectramax microplate reader
(§3) Cells were grown to 70% confluency, trypsinized, counted, and seeded in 96 well flat-bottom plates at a final concentration of 2.5×10^3-5×10^3 cells/well (Day 0). Cells were allowed to incubate in growth media for 24 hours. Treatment with the test agents or standard agents began on Day 1 and continued for 72 hours. At the 72-hour timepoint, treatment containing media was removed. Viable cell numbers are quantified by the CellTiter-Glo® cell viability assay as described above. Results from these studies were used to calculate an IC50 value (concentration of drug that inhibits cell growth by 50 percent of control) for each compound.
(§4) For single agent and combination studies, data from each experiment was collected and expressed as % Cell Growth using the following calculation: % Cell Growth=(ftest/fvehicle)×100
(§5) Where test is the fluorescence of the tested sample, and fvehicle is the fluorescence of the vehicle in which the drug is dissolved. Dose response graphs and IC50 values were generated using Prism 6 software (GraphPad) using the following equation: Y=(Top-Bottom)/(1+10^((logIC^50^-X)-HillSlope))

[2] = system: OAW28; conditions: for pIC50: Homo sapiens, OAW-28, OAW28, OVARIAN, ovarian cystadenocarcinoma, 72 hours
Description: as §1, §2, §3, §4, §5

[3] = system: SKUT-1; conditions: for pIC50: Homo sapiens, SK-UT-1, SKUT-1, ENDOMETRIAL, Uterine, 72 hours
Description: as §1, §2, §3, §4, §5

[4] = system: MDA-MB-231; conditions: for pIC50: Homo sapiens, MDA-MB-231, BREAST, TNBC, 72 hours
Description: as §1, §2, §3, §4, §5

[5] = system: NCI-H209; conditions: for pIC50: Homo sapiens, NCI-H209, LUNG, Carcinoma, 72 hours
Description: as §1, §2, §3, §4, §5

[6] = system: YAPC; conditions: for pIC50: Homo sapiens, YAPC, PANCREAS, Pancreatic, 72 hours
Description: as §1, §2, §3, §4, §5

[7] = system: BT-20; conditions: for pIC50: Homo sapiens, BT-20, BREAST, Carcinoma, 72 hours
Description: as §1, §2, §3, §4, §5

[8] = system: N87; conditions: for pIC50: N87, GASTRIC, Carcinoma, 72 hours
Description: as §1, §2, §3, §4, §5

[9] = system: A427; conditions: for pIC50: Homo sapiens, A-427, A427, LUNG, Carcinoma, 72 hours
Description: as §1, §2, §3, §4, §5

[10] = system: H1975; conditions: for pIC50: Homo sapiens, NCI-H1975, H1975, LUNG, NSCLC, 72 hours
Description: as §1, §2, §3, §4, §5

[11] = system: H358; conditions: for pIC50: Homo sapiens, NCI-H358, H358, LUNG, NSCLC, 72 hours
Description: as §1, §2, §3, §4, §5

[12] = system: Hs695T; conditions: for pIC50: Homo sapiens, Hs 695T, Hs695T, MELANOMA, LN Met, 72 hours
Description: as §1, §2, §3, §4, §5

[13] = system: Cal-27; conditions: for pIC50: Homo sapiens, Cal-27, H&N SQUAMOUS CELL, Tongue, 72 hours
Description: as §1, §2, §3, §4, §5

[14] = system: MM1.S; conditions: for pIC50: Homo sapiens, MM1.S, HEMATOPIETIC, MM, 72 hours
Description: as §1, §2, §3, §4, §5

[15] = system: H23; conditions: for pIC50: Homo sapiens, NCI-H23, H23, LUNG, NSCLC, 72 hours
Description: as §1, §2, §3, §4, §5

[16] = system: KLE; conditions: for pIC50: Homo sapiens, KLE, ENDOMETRIAL, 72 hours
Description: as §1, §2, §3, §4, §5

[17] = system: NCI-H226; conditions: for pIC50: Homo sapiens, NCI-H226, LUNG, Mesothelioma, 72 hours
Description: as §1, §2, §3, §4, §5

[18] = system: Panc-1; conditions: for pIC50: Homo sapiens, Panc-1, PANCREAS, Pancreatic, 72 hours
Description: as §1, §2, §3, §4, §5

[19] = system: ACHN; conditions: for pIC50: Homo sapiens, ACHN, RENAL, RCC, 72 hours
Description: as §1, §2, §3, §4, §5

[20] = system: MOLM-13; conditions: for pIC50: Homo sapiens, MOLM-13, HEMATOPIETIC, AML, 72 hours
Description: as §1, §2, §3, §4, §5

[21] = system: H460; conditions: for pIC50: Homo sapiens, NCI-H460, H460, LUNG, NSCLC, 72 hours
Description: as §1, §2, §3, §4, §5

[22] = system: H1650; conditions: for pIC50: Homo sapiens, NCI-H1650, H1650, LUNG, NSCLC, 72 hours
Description: as §1, §2, §3, §4, §5

[23] = system: Ishikawa; conditions: for pIC50: Homo sapiens, Ishikawa, ENDOMETRIAL, 72 hours
Description: as §1, §2, §3, §4, §5

[24] = system: FaDu; conditions: for pIC50: Homo sapiens, FaDu, H&N SQUAMOUS CELL, Pharynx, 72 hours
Description: as §1, §2, §3, §4, §5

[25] = system: CCRF-CEM; conditions: for pIC50: Homo sapiens, CCRF-CEM, HEMATOPIETIC, ALL, 72 hours
Description: as §1, §2, §3, §4, §5

CCC(C(=O)Nc1ncc(C(=O)NO)s1)c1ccc(OC)cc1 (racemic) [#1, N-hydroxy-2-(2-(4-methoxyphenyl)butanamido)thiazole-5-carboxamide]
pIC50 [1]: 6.57 | pIC50 [2]: 6.54 | pIC50 [3]: 6.64 | pIC50 [4]: 6.95 | pIC50 [5]: 6.96 | pIC50 [6]: 6.36 | pIC50 [7]: 6.63 | pIC50 [8]: 6.92 | pIC50 [9]: 6.51 | pIC50 [10]: 6.94 | pIC50 [11]: 6.80 | pIC50 [12]: 6.43 | pIC50 [13]: 6.67 | pIC50 [14]: 7.48 | pIC50 [15]: 7.12 | pIC50 [16]: 6.67 | pIC50 [17]: 6.32 | pIC50 [18]: 6.20 | pIC50 [19]: 6.64 | pIC50 [20]: 7.21 | pIC50 [21]: 7.10 | pIC50 [22]: 6.44 | pIC50 [23]: 7.32 | pIC50 [24]: 8.00 | pIC50 [25]: 7.55

CC[C@H](C(=O)Nc1ncc(C(=O)NO)s1)c1ccc(OC)cc1 [#1a, (S)—N-hydroxy-2-(2-(4-methoxyphenyl)butanamido)thiazole-5-carboxamide]
pIC50 [1]: 7.49 | #1/#1a ([1]; ratio of IC50, A375): 8.41 | #1b/#1a ([1]; ratio of IC50, A375): 20.34 | pIC50 [2]: 7.07 | #1/#1a ([2]; ratio of IC50, OAW28): 3.39 | #1b/#1a ([2]; ratio of IC50, OAW28): 6.61 | pIC50 [3]: 6.67 | #1/#1a ([3]; ratio of IC50, SKUT-1): 1.07 | #1b/#1a ([3]; ratio of IC50, SKUT-1): 5.86 | pIC50 [4]: 7.21 | #1/#1a ([4]; ratio of IC50, MDA-MB-231): 1.82 | #1b/#1a ([4]; ratio of IC50, MDA-MB-231): 10.42 | pIC50 [5]: 7.80 | #1/#1a ([5]; ratio of IC50, NCI-H209): 6.88 | #1b/#1a ([5]; ratio of IC50, NCI-H209): 15.69 | pIC50 [6]: 6.67 | #1/#1a ([6]; ratio of IC50, YAPC): 2.03 | #1b/#1a ([6]; ratio of IC50, YAPC): 9.13 | pIC50 [7]: 7.03 | #1/#1a ([7]; ratio of IC50, BT-20): 2.54 | #1b/#1a ([7]; ratio of IC50, BT-20): 8.16 | pIC50 [8]: 7.74 | #1/#1a ([8]; ratio of IC50, N87): 6.67 | #1b/#1a ([8]; ratio of IC50, N87): 18.39 | pIC50 [9]: 6.73 | #1/#1a ([9]; ratio of IC50, A427): 1.66 | #1b/#1a ([9]; ratio of IC50, A427): 7.77 | pIC50 [10]: 7.40 | #1/#1a ([10]; ratio of IC50, H1975): 2.85 | #1b/#1a ([10]; ratio of IC50, H1975): 9.95 | pIC50 [11]: 7.16 | #1/#1a ([11]; ratio of IC50, H358): 2.29 | #1b/#1a ([11]; ratio of IC50, H358): 8.09 | pIC50 [12]: 7.28 | #1/#1a ([12]; ratio of IC50, Hs695T): 7.15 | #1b/#1a ([12]; ratio of IC50, Hs695T): 18.65 | pIC50 [13]: 7.35 | #1/#1a ([13]; ratio of IC50, Cal-27): 4.78 | #1b/#1a ([13]; ratio of IC50, Cal-27): 10.33 | pIC50 [14]: 7.92 | #1/#1a ([14]; ratio of IC50, MM1.S): 2.75 | #1b/#1a ([14]; ratio of IC50, MM1.S): 5.92 | pIC50 [15]: 7.33 | #1/#1a ([15]; ratio of IC50, H23): 1.62 | #1b/#1a ([15]; ratio of IC50, H23): 9.02 | pIC50 [16]: 6.97 | #1/#1a ([16]; ratio of IC50, KLE): 2.03 | #1b/#1a ([16]; ratio of IC50, KLE): 8.03 | pIC50 [17]: 6.70 | #1/#1a ([17]; ratio of IC50, NCI-H226): 2.4 | #1b/#1a ([17]; ratio of IC50, NCI-H226): 8.44 | pIC50 [18]: 6.52 | #1/#1a ([18]; ratio of IC50, Panc-1): 2.09 | #1b/#1a ([18]; ratio of IC50, Panc-1): 8.85 | pIC50 [19]: 7.11 | #1/#1a ([19]; ratio of IC50, ACHN): 2.94 | #1b/#1a ([19]; ratio of IC50, ACHN): 9.44 | pIC50 [20]: 7.55 | #1/#1a ([20]; ratio of IC50, MOLM-13): 2.21 | #1b/#1a ([20]; ratio of IC50, MOLM-13): 7.46 | pIC50 [21]: 7.30 | #1/#1a ([21]; ratio of IC50, H460): 1.58 | #1b/#1a ([21]; ratio of IC50, H460): 7.26 | pIC50 [22]: 6.76 | #1/#1a ([22]; ratio of IC50, H1650): 2.09 | #1b/#1a ([22]; ratio of IC50, H1650): 6.91 | pIC50 [23]: 7.55 | #1/#1a ([23]; ratio of IC50, Ishikawa): 1.71 | #1b/#1a ([23]; ratio of IC50, Ishikawa): 6.82 | pIC50 [24]: 7.40 | #1/#1a ([24]; ratio of IC50, FaDu): 0.25 | #1b/#1a ([24]; ratio of IC50, FaDu): 8.28 | pIC50 [25]: 7.85 | #1/#1a ([25]; ratio of IC50, CCRF-CEM): 2 | #1b/#1a ([25]; ratio of IC50, CCRF-CEM): 8.07

CC[C@@H](C(=O)Nc1ncc(C(=O)NO)s1)c1ccc(OC)cc1 [#1b, (R)—N-hydroxy-2-(2-(4-methoxyphenyl)butanamido)thiazole-5-carboxamide]
pIC50 [1]: 6.19 | pIC50 [2]: 6.25 | pIC50 [3]: 5.90 | pIC50 [4]: 6.19 | pIC50 [5]: 6.60 | pIC50 [6]: 5.71 | pIC50 [7]: 6.12 | pIC50 [8]: 6.48 | pIC50 [9]: 5.84 | pIC50 [10]: 6.40 | pIC50 [11]: 6.25 | pIC50 [12]: 6.01 | pIC50 [13]: 6.33 | pIC50 [14]: 7.15 | pIC50 [15]: 6.37 | pIC50 [16]: 6.07 | pIC50 [17]: 5.77 | pIC50 [18]: 5.57 | pIC50 [19]: 6.13 | pIC50 [20]: 6.68 | pIC50 [21]: 6.44 | pIC50 [22]: 5.92 | pIC50 [23]: 6.72 | pIC50 [24]: 6.48 | pIC50 [25]: 6.95
